Test results as given in patent US9611277B2 (Janssen Pharmaceutica NV, priority 2013, dated 2017).

Legend:
human orexin 2 receptor = human orexin 2 receptor (Homo sapiens (Human), UniProt O43614); test: Human orexin 2 receptor radioligand binding; conditions: human orexin 2 receptor; averages of 2-20 runs; read-out: hOX2 Ki
Outline: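 HEK293 cells stably expressing human OX2 receptor, homogenized, incubated with [3H]-EMPA and compounds (DMSO ≤0.1%); nonspecific binding with 10 μM almorexant. Filter-bound radioactivity counted by scintillation; IC50 from one-site competition fit of triplicates, Ki from IC50 and predetermined radioligand Kd, averaged over 2-20 runs.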

rat orexin 1 receptor = rat orexin 1 receptor (Rattus norvegicus, UniProt P56718); test: Rat orexin 1 receptor radioligand binding; conditions: rat orexin 1 receptor; averages of 2-20 runs; read-out: rOX1 Ki
Outline: (§1)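 Competition binding with the tritiated thiazolyl-pyrrolidinyl-methanone radioligand in PBS on homogenized rat or human OX1R-expressing cell suspensions, ≤0.1% DMSO; nonspecific binding defined with 10 μM almorexant. Bound radioactivity read by scintillation after filtration; IC50 from one-site competition fit, converted to Ki using pre-determined radioligand Kd.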

human orexin 1 receptor = human orexin 1 receptor (Homo sapiens, UniProt O43613); test: Human orexin 1 receptor radioligand binding; conditions: human orexin 1 receptor; averages of 2-20 runs; read-out: hOX1 Ki
Outline: as §1

human orexin 2 receptor, sequence (O43614 whole entry): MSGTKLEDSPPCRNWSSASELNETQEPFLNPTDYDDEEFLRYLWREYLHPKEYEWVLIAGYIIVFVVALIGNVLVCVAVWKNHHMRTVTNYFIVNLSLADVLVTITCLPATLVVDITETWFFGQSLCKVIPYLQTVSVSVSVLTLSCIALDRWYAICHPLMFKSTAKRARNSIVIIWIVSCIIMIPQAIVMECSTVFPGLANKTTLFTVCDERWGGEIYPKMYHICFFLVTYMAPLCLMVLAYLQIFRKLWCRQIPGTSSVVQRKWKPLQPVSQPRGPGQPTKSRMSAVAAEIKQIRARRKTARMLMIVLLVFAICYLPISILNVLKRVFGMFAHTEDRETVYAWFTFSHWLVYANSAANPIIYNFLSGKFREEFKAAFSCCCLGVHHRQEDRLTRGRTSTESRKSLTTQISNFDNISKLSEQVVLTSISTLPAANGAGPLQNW

Row | SMILES | Ki (human orexin 2 receptor) | Ki (rat orexin 1 receptor) | Ki (human orexin 1 receptor)
1 | CN(c1ccc(C(F)(F)F)cn1)[C@@H]1C[C@H]2C[C@@H]1N(C(=O)c1ccccc1-n1nccn1)C2 [Example 153, (2-(2H-1,2,3-triazol-2-yl)phenyl)((1S,4S,6R)-6-(methyl(5-(trifluoromethyl)pyridin-2-yl)amino)-2-azabicyclo[2.2.1]heptan-2-yl)methanone] | 342 nM | 3 nM | 3 nM
2 | CN(c1ccc(C(F)(F)F)cn1)[C@@H]1C[C@H]2C[C@@H]1N(C(=O)c1cccc(F)c1-n1nccn1)C2 [Example 154, (3-fluoro-2-(2H-1,2,3-triazol-2-yl)phenyl)((1S,4S,6R)-6-(methyl(5-(trifluoromethyl)pyridin-2-yl)amino)-2-azabicyclo[2.2.1]heptan-2-yl)methanone] | 329 nM | 4 nM | 6 nM
3 | CN(c1ccc(C(F)(F)F)cn1)[C@@H]1C[C@H]2C[C@@H]1N(C(=O)c1cc(F)ccc1-n1nccn1)C2 [Example 155, (5-fluoro-2-(2H-1,2,3-triazol-2-yl)phenyl)((1S,4S,6R)-6-(methyl(5-(trifluoromethyl)pyridin-2-yl)amino)-2-azabicyclo[2.2.1]heptan-2-yl)methanone] | 303 nM | 5 nM | 3 nM
4 | Cc1ccc(-n2nccn2)c(C(=O)N2C[C@H]3C[C@@H](N(C)c4ccc(C(F)(F)F)cn4)[C@@H]2C3)n1 [Example 156, ((1S,4S,6R)-6-(methyl(5-(trifluoromethyl)pyridin-2-yl)amino)-2-azabicyclo[2.2.1]heptan-2-yl)(6-methyl-3-(2H-1,2,3-triazol-2-yl)pyridin-2-yl)methanone] | 274 nM | 7 nM | 5 nM

The next lines start with the values.

Row | Ki (human orexin 2 receptor) | Ki (rat orexin 1 receptor) | Ki (human orexin 1 receptor) | SMILES
5 | 340 nM | 5 nM | 2 nM | CN(c1ccc(C(F)(F)F)cn1)[C@@H]1C[C@H]2C[C@@H]1N(C(=O)c1cc(F)ccc1-c1ncccn1)C2 [Example 158, (5-fluoro-2-(pyrimidin-2-yl)phenyl)((1S,4S,6R)-6-(methyl(5-(trifluoromethyl)pyridin-2-yl)amino)-2-azabicyclo[2.2.1]heptan-2-yl)methanone]
6 | 209 nM | 6 nM | 4 nM | CN(c1ccc(C(F)(F)F)cn1)[C@@H]1C[C@H]2C[C@@H]1N(C(=O)c1c(F)cccc1-c1ncccn1)C2 [Example 159, (2-fluoro-6-(pyrimidin-2-yl)phenyl)((1S,4S,6R)-6-(methyl(5-(trifluoromethyl)pyridin-2-yl)amino)-2-azabicyclo[2.2.1]heptan-2-yl)methanone]
7 | 208 nM | 9 nM | 6 nM | CCN(c1ccc(C(F)(F)F)cn1)C1CC2CC1N(C(=O)c1cccc(F)c1-c1ncccn1)C2 (stereo not drawn) [Example 160]
8 | 384 nM | 14 nM | 5 nM | O=C(c1cccc(F)c1-c1ncccn1)N1C[C@H]2C[C@@H](N(CC3CC3)c3ccc(C(F)(F)F)cn3)[C@@H]1C2 [Example 161, ((1S,4S,6R)-6-((cyclopropylmethyl)(5-(trifluoromethyl)pyridin-2-yl)amino)-2-azabicyclo[2.2.1]heptan-2-yl)(3-fluoro-2-(pyrimidin-2-yl)phenyl)methanone]
9 | 962 nM | 19 nM | 12 nM | COCCN(c1ccc(C(F)(F)F)cn1)[C@@H]1C[C@H]2C[C@@H]1N(C(=O)c1cccc(F)c1-c1ncccn1)C2 [Example 163, (3-fluoro-2-(pyrimidin-2-yl)phenyl)((1S,4S,6R)-6-((2-methoxyethyl)(5-(trifluoromethyl)pyridin-2-yl)amino)-2-azabicyclo[2.2.1]heptan-2-yl)methanone]
10 | 236 nM | 2 nM | 4 nM | O=C(c1ccccc1-n1nccn1)N1C[C@H]2C[C@@H](Nc3ccc(Br)cn3)[C@@H]1C2 [Example 166, (2-(2H-1,2,3-triazol-2-yl)phenyl)((1S,4S,6R)-6-((5-bromopyridin-2-yl)amino)-2-azabicyclo[2.2.1]heptan-2-yl)methanone]
